Measurements published in patent publication US10787452B2 (Vertex Pharmaceuticals Incorporated, priority 2012, dated 2020).

system: HCT116 colorectal cancer cells; test: Cisplatin sensitization assay (96 h cell viability MTS); assay type: cell-based; settings: 96 h MTS, compound plus Cisplatin;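 note: compound concentration needed to lower the Cisplatin-alone IC50 by a set fold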
Outline: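 Viability is measured with MTS reagent, added after 96 h and developed for 1 h at 37° C. Beforehand, cells receive compound and cisplatin simultaneously in a concentration matrix of 2-fold serial dilutions starting at 10 μM final.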

Compound | Cisplatin Sensitization Assay
COc1cncc(NC(=O)c2c(N)nn3cc(F)cnc23)c1-c1cccnc1 [I-C-82, 2-amino-6-fluoro-N-(5′-methoxy-[3,4′-bipyridin]-3′-yl)pyrazolo[1,5-a]pyrimidine-3-carboxamide] | +++ (Compounds with a Cisplatin sensitization value of <0.02 μM are marked with “+++.”)
CN1CC[C@@H](Oc2ccncc2NC(=O)c2c(N)nn3cc(Cl)cnc23)C1 [I-O-63, (R)-2-amino-6-chloro-N-(4-((1-methylpyrrolidin-3-yl)oxy)pyridin-3-yl)pyrazolo[1,5-a]pyrimidine-3-carboxamide] | ++ (Compounds with a Cisplatin sensitization value >0.02 μM but <0.2 μM are marked with “++.”)
Nc1nn2cc(F)cnc2c1C(=O)Nc1cnccc1N1CCC(C(=O)N2CC(F)C2)CC1 [I-G-82, 2-amino-6-fluoro-N-(4-(4-(3-fluoroazetidine-1-carbonyl)piperidin-1-yl)pyridin-3-yl)pyrazolo[1,5-a]pyrimidine-3-carboxamide] | +++ (Compounds with a Cisplatin sensitization value of <0.02 μM are marked with “+++.”)
Nc1nn2cc(F)cnc2c1C(=O)Nc1cncc(Cl)c1N1CCN(C2CCOC2)CC1 (centres unmarked) [I-N-124, 2-amino-N-(5-chloro-4-(4-(tetrahydrofuran-3-yl)piperazin-1-yl)pyridin-3-yl)-6-fluoropyrazolo[1,5-a]pyrimidine-3-carboxamide] | +++ (Compounds with a Cisplatin sensitization value of <0.02 μM are marked with “+++.”)
Nc1nn2cc(F)cnc2c1C(=O)Nc1cnccc1OC1CCS(=O)(=O)CC1 [I-O-45, 2-amino-N-(4-((1,1-dioxidotetrahydro-2H-thiopyran-4-yl)oxy)pyridin-3-yl)-6-fluoropyrazolo[1,5-a]pyrimidine-3-carboxamide] | +++ (Compounds with a Cisplatin sensitization value of <0.02 μM are marked with “+++.”)
NCC1CCN(c2ccncc2NC(=O)c2c(N)nn3cc(Cl)cnc23)CC1 [I-N-91, 2-amino-N-(4-(4-(aminomethyl)piperidin-1-yl)pyridin-3-yl)-6-chloropyrazolo[1,5-a]pyrimidine-3-carboxamide] | ++ (Compounds with a Cisplatin sensitization value >0.02 μM but <0.2 μM are marked with “++.”)
Nc1nn2cc(F)cnc2c1C(=O)Nc1cnccc1-n1ccnc1 [I-N-7, N-(4-(1H-imidazol-1-yl)pyridin-3-yl)-2-amino-6-fluoropyrazolo[1,5-a]pyrimidine-3-carboxamide] | ++ (Compounds with a Cisplatin sensitization value >0.02 μM but <0.2 μM are marked with “++.”)
Nc1nn2cc(Cl)cnc2c1C(=O)Nc1cnccc1N1CCN(C2CC2)CC1 [I-N-64, 2-amino-6-chloro-N-(4-(4-cyclopropylpiperazin-1-yl)pyridin-3-yl)pyrazolo[1,5-a]pyrimidine-3-carboxamide] | +++ (Compounds with a Cisplatin sensitization value of <0.02 μM are marked with “+++.”)
C[N+]1([O-])CCN(C(=O)C2CCN(c3c(F)cncc3NC(=O)c3c(N)nn4cc(F)cnc34)CC2)CC1 [I-G-95, 4-(1-(3-(2-amino-6-fluoropyrazolo[1,5-a]pyrimidine-3-carboxamido)-5-fluoropyridin-4-yl)piperidine-4-carbonyl)-1-methylpiperazine 1-oxide] | +++ (Compounds with a Cisplatin sensitization value of <0.02 μM are marked with “+++.”)
CN1CC(C(=O)N2CCN(c3c(F)cncc3NC(=O)c3c(N)nn4cc(F)cnc34)CC2)C1 [I-N-194] | +++ (Compounds with a Cisplatin sensitization value of <0.02 μM are marked with “+++.”)
Nc1nn2cc(F)cnc2c1C(=O)Nc1cnccc1OC1CCC(C(=O)O)CC1 (centres unmarked) [I-O-8, 4-((3-(2-amino-6-fluoropyrazolo[1,5-a]pyrimidine-3-carboxamido)pyridin-4-yl)oxy)cyclohexanecarboxylic acid] | + (Compounds with a Cisplatin sensitization value >0.2 μM but <5 μM are marked with “+.”)
